From patent publication US6583154B1, “Compounds and methods which modulate feeding behavior and related diseases” (Amgen Inc., priority 1998, dated 2003)
Structures can show the parent of a compound that is named as a salt.

Key:
Male BALB-C mice = experiment: IP administration of compounds in fasted male BALB-C mice, 2 hr food intake; assay type: in vivo; conditions: Mus musculus; male BALB-C mice fasted 18-20 hr; 30 mg/kg (ip) in 2% tween; food given after 30 min, weighed 2 hr later; vs vehicle; read-out: inhibition of feeding (2 hr food intake)
Excerpt: Protocol For IP Administration Of Compounds In Male BALB-C Mice.
Male BALB-C mice (20-25 g)were obtained from Charles Rivers (Wilmington, Mass.) and were given at least a one week acclimation period to Amgen's animal care facilities. Animals were housed 10/cage and were provided ad libitum food and water. For testing, mice were fasted for 18-20 hr (overnight) prior to the start of the experiment. On the day of the experiment, mice were removed from group housing and placed into individual cages (without food). Test compounds or vehicle was then administered via the intraperitoneal (i.p.) route of administration. Test compounds were suspended in a 2% tween solution; the 2% tween solution was used as the vehicle treatment (control group). Group sizes for each treatment were 6-8 animals. After 30 min, premeasured food was placed into the cages. Two hours later, the food was weighed again. The difference between 2 hr weight and the premeasured weight was taken as 2 hr food intake.

Long-Evans male rats = experiment: IP administration of compounds in fasted Long-Evans male rats, 2 hr food intake; assay type: in vivo; conditions: Rattus norvegicus; male Long Evans rats fasted 18-20 hr; 30 mg/kg (ip) in 2% tween; food given after 30 min, weighed 2 hr later; vs vehicle; read-out: inhibition of feeding (2 hr food intake)
Protocol: Protocol for IP Administration of Compounds in Fasted Long-Evans Male Rats
Male Long Evans rats (85-100 g)were obtained from Harlan (Indianapolis, Ind.) and were given at least a one week acclimation period to Ambients animal care facilities. Animals were individually housed and were provided ad libitum food and water. For testing, rats were fasted for 18-20 hr (overnight) prior to the start of the experiment. On the test day, test compounds or vehicle was administered via the intraperitoneal (i.p.) route of administration. Test compounds were suspended in a 2% tween solution; the 2% tween solution was used as the vehicle treatment (control group). Group sizes for each treatment were 6-8 animals. After 30 min, premeasured food was placed into the cages. Two hours later, the food was weighed again. The difference between 2 hr weight and the premeasured weight was taken as 2 hr food intake.

Row | melting point | SMILES | inhibition in vivo at 30 mg/kg (Male BALB-C mice) [%] | inhibition in vivo at 30 mg/kg (Long-Evans male rats) [%]
1 | – | Cc1nc(N2CCCC2)c2[nH]c(-c3ccccc3)cc2n1 [Example 9, 2-Methyl-6-phenyl-4-pyrrolidinylpyrrolo[3,2-d]pyrimidine] | ≥ 10 | –
2 | – | c1ccc(-c2cc3ncnc(N4CCCCC4)c3[nH]2)cc1 [Example 30, 6-Phenyl-4-piperidylpyrrolo[3,2-d]pyrimidine Hydrochloride] | ≥ 10 | –
3 | – | Cc1nc(N2CCCCC2)c2sc(-c3ccccc3)cc2n1 [Example 32, 2-Methyl-6-phenyl-4-piperidylthiopheno[3,2-d]pyrimidine Hydrochloride] | ≥ 10 | ≥ 10
4 | – | Cc1nc(N2CCCCC2)c2sc(-c3ccc(Cl)cc3)cc2n1 [Example 33, 6-(4-Chlorophenyl)-2-methyl-4-piperidylthiopheno[3,2-d]pyrimidine Hydrochloride] | ≥ 10 | ≥ 10
5 | – | Cc1nc(N2CC=CC2)c2[nH]c(-c3ccccc3)cc2n1 [Example 61, 2-Methyl-6-phenyl-4-(pyrrolinyl)pyrrolo[3,2-d]pyrimidine Hydrochloride Monohydrate] | ≥ 10 | ≥ 10
6 | – | Cc1nc(N2CCCCC2C)c2[nH]c(-c3ccccc3)cc2n1 (stereo not shown) [Example 63, 2-Methyl-6-phenyl-4-(2-methylpiperidinyl)pyrrolo(3,2-d)pyrimidine Hydrochloride Monohydrate] | ≥ 10 | ≥ 10
7 | – | CCC1CCCCN1c1nc(C)nc2cc(-c3ccccc3)[nH]c12 (stereo not shown) [Example 64, 2-Methyl-6-phenyl-4-(2-ethylpiperidinyl)pyrrolo[3,2-d]pyrimidine Hydrochloride Hydrate] | ≥ 10 | –
8 | – | Cc1nc(N2CC=CCC2)c2[nH]c(-c3ccccc3)cc2n1 [Example 65, 2-Methyl-6-phenyl-4-(1,2,3,6-tetrahydropyridinyl)pyrrolo[3,2-d]pyrimidine Hydrochloride] | ≥ 10 | ≥ 10
9 | – | Nc1nc(N2CCCCC2)c2[nH]c(-c3ccccc3)cc2n1 [Example 66e, 6-Phenyl-4-piperidylpyrrolo[3,2-d]pyrimidine-2-yl Amine Hydrochloride Hydrate] | ≥ 10 | ≥ 10
10 | – | CCc1nc(N2CCCCC2)c2[nH]c(-c3ccccc3)cc2n1 [Example 68c, 2-Ethyl-6-phenyl-4-piperidylpyrrolo[3,2-d]pyrimidine Hydrochloride Monohydrate] | ≥ 10 | ≥ 10
11 | – | COc1ccc(-c2cc3nc(C)nc(N4CCCCC4)c3[nH]2)cc1 [Example 71e, 4-Methoxy-1-(2-methyl-4-piperidylpyrrolo[4,5-d]pyrimidin-6-yl)benzene Hydrochloride Monohydrate] | ≥ 10 | ≥ 10
12 | – | Cc1nc(N2CCCCC2)c2[nH]c(-c3ccc(O)cc3)cc2n1 [Example 72, 2-methyl-4-piperidyl-6-(4-hydroxyphenyl)pyrrolo[3,2-d]pyrimidine] | ≥ 10 | ≥ 10
13 | – | CCOC(=O)c1[nH]c(-c2ccc(F)cc2)cc1N [Example 73a, ethyl 3-amino-5-(4-fluorophenyl)pyrrole-2-carboxylate] | ≥ 10 | –
14 | – | Cc1nc(N2CCCCC2)c2[nH]c(-c3ccccn3)cc2n1 [Example 77, 2-Methyl-4-piperidyl-6-(2-pyridyl)pyrrolo[3,2-d]pyrimidine Hydrochloride Hydrate] | ≥ 10 | –
15 | – | Cc1nc(N2CCCCC2)c2[nH]c(C3CCCCC3)cc2n1 [Example 80d, 6-Cyclohexyl-2-methyl-4-piperidylpyrrolo[3,2-d]pyrimidine Hydrochloride Hydrate] | ≥ 10 | ≥ 10
16 | – | Cc1nc(N2CCCCC2)c2[nH]c(C34C[C@H]5C[C@@H](C3)C[C@@H](C4)C5)cc2n1 [Example 81d, 6-Adamantanyl-2-methyl-4-piperidylpyrrolo[3,2-d]pyrimidine Hydrochloride Monohydrate] | ≥ 10 | –
17 | – | Cc1nc(N2CCCCC2)c2[nH]c(-c3cc4ccccc4o3)cc2n1 [Example 85, 2-(2-Methyl-4-piperidylpyrrolo[4,5-d]pyrimidin-6-yl)benzo[b]furan Hydrochloride Monohydrate] | ≥ 10 | ≥ 10

Row | melting point | SMILES | inhibition in vivo at 30 mg/kg (Male BALB-C mice) [%] | inhibition in vivo at 30 mg/kg (Long-Evans male rats) [%]
18 | 253.8 to 255.2 °C (dec.) | Cc1nc(N2CCCCC2)c2[nH]c(-c3ccc(Cl)cc3)cc2n1.Cl [Example 92d, 6-(4-Chlorophenyl)-2-methyl-4-piperidylpyrrolo[3,2-d]pyrimidine Hydrochloride] | ≥ 10 | –
19 | – | CCCNc1nc(N2CCCCC2)c2[nH]c(-c3ccccc3)cc2n1 [Example 93, (6-Phenyl-4-piperidylpyrrolo[3,2-d]pyrimidine-2-yl)propylamine Hydrochloride] | ≥ 10 | –
20 | – | Cc1nc(N2CCCCC2)c2oc(-c3ccc(Cl)cc3)cc2n1 [Example 95c, 6-(4-Chlorophenyl)-2-methyl-4-piperidinylfurano-[3,2-d]-pyrimidine Hydrochloride Hydrate] | ≥ 10 | ≥ 10
21 | 224.5 to 226 °C | CC1=C(c2cc3nc(C)nc(N4CCCCC4)c3[nH]2)CCC1.Cl [Example 98, 2-Methyl-6-(2-methylcyclopent-1-enyl)-4-piperidylpyrrolo[3,2-d]pyrimidine Hydrochloride] | ≥ 10 | –
22 | – | Cc1nc(N2CCCCC2)c2[nH]c(-c3cccc(F)c3)cc2n1 [Example 103, 6-(3-Fluorophenyl)-2-methyl-4-piperidylpyrrolo[3,2-d]pyrimidine Hydrochloride Monohydrate] | ≥ 10 | –
23 | – | Cc1nc(N2CCCCC2)c2[nH]c(-c3cccc(C(F)(F)F)c3)cc2n1 [Example 107, 2-Methyl-4-piperidyl-6-[3-(trifluoromethyl)phenyl]pyrrolo[3,2-d]pyrimidine Hydrochloride Monohydrate] | ≥ 10 | –
24 | – | Cc1nc(N2CCCCC2)c2[nH]c(-c3ccc4c(c3)OCO4)cc2n1 [Example 114, 5-[2-Methyl-4-piperidylpyrrolo[4,5-d]pyrimidin-6-yl]-2H-benzo[d]1,3-dioxolane Hydrochloride Monohydrate] | ≥ 10 | –
25 | – | Cc1nc(N2CCCCC2)c2[nH]c(-c3ccc4c(c3)OCCO4)cc2n1 [Example 125, 6-(2-Methyl-4-piperidylpyrrolo[4,5-d]pyrimidin-6-yl)-2H,3H-benzo[e]1,4-dioxane Hydrochloride Monohydrate] | ≥ 10 | –
26 | – | Cc1nc(N2CCCCC2)c2[nH]c(-c3ccc4c(c3)CCC4)cc2n1 [Example 130, 6-Indan-5-yl-2-methyl-4-piperidylpyrrolo[3,2-d]pyrimidine Hydrochloride Monohydrate] | ≥ 10 | –
27 | – | Cc1nc(N2CCCCC2)c2[nH]c(-c3ccc4c(c3)CCO4)cc2n1 [Example 131, 5-[2-Methyl-4-piperidylpyrrolo[4,5-d]pyrimidin-6-yl]-2,3-dihydrobenzo[b]furan Hydrochloride Hydrate] | ≥ 10 | –
28 | 275 to 277 °C | COc1cc(-c2cc3nc(C)nc(N4CCCCC4)c3[nH]2)cc(OC)c1OC.Cl [Example 143, 1,2,3-Trimethoxy-5-[2-methyl-4-piperidylpyrrolo[4,5-d]pyrimidin-6-yl]benzene Hydrochloride] | – | ≥ 10
29 | – | Cc1nc(N2CC=CC2)c2[nH]c(-c3ccc(F)cc3)cc2n1 [Example 199, 6-(4-Fluorophenyl)-2-methyl-4-(3-pyrrolinyl)pyrrolo[3,2-d]pyrimidine Hydrochloride Hydrate] | ≥ 10 | –
30 | – | CN(C)c1nc(N2CCCCC2)c2[nH]c(-c3ccccc3)cc2n1 [Example 203, Hydrochloride Hydrate] | – | ≥ 10
31 | – | Fc1ccc(-c2cc3nc(C4CC4)nc(N4CCCCC4)c3[nH]2)cc1 [Example 209c, 2-Cyclopropyl-6-(4-fluorophenyl)-4-piperidylpyrrolo[3,2-d]pyrimidine Hydrochloride Hydrate] | – | ≥ 10
32 | – | Cc1nc(N2CCc3ccccc32)c2[nH]c(-c3ccccc3)cc2n1 [Example 215, 4-Indolinyl-2-methyl-6-phenylpyrrolo[3,2-d]pyrimidine Hydrochloride Hydrate] | ≥ 10 | –
33 | – | Cc1nc(N2CC=CC2)c2oc(-c3ccccc3)cc2n1 [Example 216c, 2-Methyl-6-phenyl-4-(3-pyrrolinyl)furano[3,2-d]pyrimidine Hydrochloride Hydrate] | – | ≥ 10
34 | – | Cc1nc(-n2cccn2)c2[nH]c(-c3ccccc3)cc2n1 [Example 218, 2-Methyl-6-phenyl-4-pyrazolypyrrolo[3,2-d]pyrimidine Hydrochloride Hydrate] | ≥ 10 | –
